# Data: article PMC8597757, “Pharmacokinetic and Safety Profile of the Novel HIV Nonnucleoside Reverse Transcriptase Inhibitor MK-8507 in Adults without HIV” (Antimicrobial Agents and Chemotherapy, 2021)
# “Also recorded” adds a separate entry of the source.
# Assays:
# [1] = Cross-study formulation comparison, 400 mg tablet vs suspension; type: in vivo, human
# Procedure: Statistical analyses were performed using SAS software version 9.3 (SAS Institute Inc., Cary, NC, USA). […] The least-squares geometric mean (GM) and corresponding 95% CIs obtained from the models were exponentiated to provide estimates for the population GMs and CIs on the original scales. To assess the effect of food, 90% CIs were calculated for the GMR (fed/fasted) of MK-8507 AUC0-∞, Cmax, and C168hr. […] The point estimates and the corresponding 95% CIs were obtained from the model for GM of each formulation; the GMR and 90% CIs comparing tablet to suspension were estimated using the model.
# [2] = test system: common NNRTI resistance-associated variants; conditions: cited from earlier work
# [3] = Single-dose plasma pharmacokinetics of MK-8507 (suspension, study 1; tablet, study 2); type: in vivo; conditions: human; for Cmax: n=6, read-out: Cmax (geometric mean [95% CI]); for AUC(0-t): n=6, read-out: AUC0–168 (geometric mean [95% CI]); for concentration at 168 h: n=6, read-out: C168hr (geometric mean [95% CI])
# Procedure: (§1) Study 1 was a 4-period, alternating panel (A and B), rising single-dose trial. Participants in each panel were randomized to receive single rising doses of MK-8507 (n = 6 per panel) or placebo (n = 2 per panel) as an oral suspension. All study drugs were administered after an overnight fast, except in period 4. […] There was a minimum 20-day washout interval between doses within each panel and a 10-day interval between each dosing period. […] MK-8507 in plasma was extracted by protein precipitation and analyzed by reversed-phase chromatographic separation coupled with tandem mass spectrometric detection by Merck & Co., Inc. (West Point, PA, USA). The liquid chromatography-tandem mass spectrometric (LC-MS/MS) system consisted of a Waters Acquity ultraperformance liquid chromatography system (Waters Corporation, Milford, MA, USA) employing a turbo ionspray interface in the negative ion mode. The lower limit of quantitation was 1.0 ng/mL (2.03 nM) with a linear calibration range from 1.0 to 1000 ng/mL. The mean intrarun accuracy was 94.8 to 113% (precision, ≤6.2% coefficient of variation [CV]), and the mean interrun accuracy was 94.4 to 103.0% (precision, ≤8.6% CV). […] Statistical analyses were performed using SAS software version 9.3 (SAS Institute Inc., Cary, NC, USA). […] The least-squares geometric mean (GM) and corresponding 95% CIs obtained from the models were exponentiated to provide estimates for the population GMs and CIs on the original scales.
# [4] = Food effect assessment (100 mg suspension, high-fat meal vs fasted); type: in vivo, human
# Procedure: as §1
# [5] = Single-dose plasma pharmacokinetics of MK-8507 (suspension, study 1; tablet, study 2); type: in vivo; conditions: human, fasted; for AUC(0-inf): n=6, read-out: AUC0-∞ (geometric mean [95% CI]); for AUC(0-t): n=6, read-out: AUC0–168 (geometric mean [95% CI]); for half-life: n=6, read-out: Apparent terminal t½ (geometric mean [%GVC]) (converted); for concentration at 168 h: n=6, read-out: C168hr (geometric mean [95% CI]); for Cmax: n=6, read-out: Cmax (geometric mean [95% CI])
# CYP3A4 = conditions: preclinical in vitro studies, no reference given; cited from earlier work
# HIV-1 = test: PK target of Ctrough >=6 x IC50 (in vitro potency); conditions: Human immunodeficiency virus 1; Ctrough target expected to achieve antiviral efficacy; meta-analysis ref 20; read-out: 6 × IC50 threshold (PK target for C168hr)
# Procedure: The plasma PK profile of MK-8507 is supportive of QW administration. Following oral administration, MK-8507 is readily absorbed, with a Tmax of ∼2 to 7 h followed by a biphasic decline in plasma concentration. […] Concentration at trough is the PK parameter generally associated with antiviral efficacy of HIV treatment ([20][–][23]). Based on a meta-analysis of Ctrough normalized by in vitro potency and viral load data from other NNRTIs ([20]), a PK target of Ctrough ≥6 × 50% inhibitory concentration (IC50) is a threshold expected to achieve antiviral efficacy as part of combination therapy. […] These PK results support further development of MK-8507 as a QW oral agent for treatment of HIV administered as part of a complete treatment regimen together with islatravir.
# [6] = Dose proportionality assessment of single oral doses 2 to 1,200 mg; type: in vivo, human
# Description: The AUC0-168hr and […] group was not statistically significant at the 0.05 level and was therefore omitted from the final model. An overall slope was estimated across all groups.
# [7] = po, 30 mg, single oral dose 30 mg, suspension, fasted
# [8] = po, 400 mg, single oral dose 400 mg, suspension, fasted
# [9] = 100 mg suspension, compared with fasted administration
# [10] = po, 2 mg, single oral dose 2 mg, suspension
# [11] = po, 10 mg, single oral dose 10 mg, suspension
# [12] = po, 30 mg, single oral dose 30 mg, suspension
# [13] = po, 100 mg, single oral dose 100 mg, suspension
# [14] = po, 200 mg, single oral dose 200 mg, suspension
# [15] = po, 400 mg, single oral dose 400 mg, suspension
# [16] = po, 400 mg, single oral dose 400 mg, tablet
# [17] = po, 800 mg, single oral dose 800 mg, tablet
# [18] = po, 1200 mg, single oral dose 1,200 mg, tablet
compound,measurement,setting,value
N#Cc1cc(Cl)cc(Oc2c(C(F)(F)F)ncn(Cc3cc(C(F)(F)F)c(=O)[nH]n3)c2=O)c1 [MK-8507],"reduction of Cmax, tablet compared to suspension",[1]; 400-mg dose,21%
same,"GMR (90% CI) tablet/suspension, C168hr",[1]; 400-mg single dose,"0.93 (0.66, 1.29)"
same,in vitro activity against common NNRTI resistance-associated variants,[2],demonstrated in vitro activity
same,half-life,"[3]; oral, overall, discussion, read-out: terminal t½ (converted)",~70 h
same,half-life,"[3]; oral, single doses 2 to 1,200 mg, range across doses, read-out: mean terminal half-life (t1/2)",58 to 84 h
same,half-life,"[3]; oral, some participants, 336 h of PK sampling, read-out: t1/2 in some participants",> 100 h
same,Tmax,"[3]; oral, suspension, fasted, range across doses, read-out: median Tmax",2 to 4 h
same,Cmax,"[3]; po, 2 mg, single oral dose 2 mg, suspension, fasted",50 nM
same,AUC(0-inf),"[3]; po, 10 mg, single oral dose 10 mg, suspension, fasted, n=6, read-out: AUC0-∞ (geometric mean [95% CI])",15.2 µM·h
same,Cmax,"[3]; po, 10 mg, single oral dose 10 mg, suspension, fasted",220 nM
same,AUC(0-t),[3]; [7],39.7 µM·h
same,concentration at 168 h,[3]; [7],100 nM
same,Tmax,"[3]; po, 30 mg, single oral dose 30 mg, suspension, fasted, n=6, read-out: Tmax (median [min, max])",2 h
same,Tmax,"[3]; po, 100 mg, single oral dose 100 mg, suspension, fasted, n=6, read-out: Tmax (median [min, max])",2.04 h
same,AUC(0-t),"[3]; po, 200 mg, single oral dose 200 mg, suspension, fasted",287 µM·h
same,concentration at 168 h,[3]; [8],1300 nM
same,Cmax,[3]; [8],11500 nM
same,Tmax,"[3]; po, oral doses across both studies, suspension or tablet, read-out: time to maximum concentration (Tmax)",2 to 7 h
same,effect of a high-fat meal on MK-8507 pharmacokinetics,[4]; 100 mg suspension,no clinically meaningful effect; also recorded: no meaningful effect on AUC0–∞ or C168hr
same,change in C168hr by a high-fat meal,[4]; [9],no change
same,decrease of AUC0–∞ by a high-fat meal,[4]; [9],~9%
same,decrease of Cmax by a high-fat meal,[4]; [9],35%
same,delay of Tmax by a high-fat meal,[4]; [9],~8 h
same,AUC(0-inf),"[4]; human, single oral dose 100 mg (fed), suspension, following a high-fat meal, plasma, n=6, read-out: AUC0-∞ (geometric mean [95% CI])",159 µM·h
same,AUC(0-t),"[4]; human, single oral dose 100 mg (fed), suspension, following a high-fat meal, plasma, n=6, read-out: AUC0–168 (geometric mean [95% CI])",126 µM·h
same,half-life,"[4]; human, single oral dose 100 mg (fed), suspension, following a high-fat meal, plasma, n=6, read-out: Apparent terminal t½ (geometric mean [%GVC]) (converted)",72.6 h
same,concentration at 168 h,"[4]; human, single oral dose 100 mg (fed), suspension, following a high-fat meal, plasma, n=6, read-out: C168hr (geometric mean [95% CI])",310 nM
same,Cmax,"[4]; human, single oral dose 100 mg (fed), suspension, following a high-fat meal, plasma, n=6, read-out: Cmax (geometric mean [95% CI])",1670 nM
same,Tmax,"[4]; human, single oral dose 100 mg (fed), suspension, following a high-fat meal, plasma, n=6, read-out: Tmax (median [min, max])",10 h
same,"GMR fed/fasted, C168hr","[4]; single oral dose 100 mg suspension, high-fat meal vs overnight fast, n=6",1.02
same,Tmax,"[5]; oral, tablet, range across doses, read-out: median Tmax",4 to 7 h
same,AUC(0-inf),[5]; [10],3.82 µM·h
same,AUC(0-t),[5]; [10],2.94 µM·h
same,half-life,[5]; [10],82.9 h
same,concentration at 168 h,[5]; [10],10 nM
same,Tmax,"[5]; po, 2 mg, single oral dose 2 mg, suspension, n=6, read-out: Tmax (median [min, max])",2 h
same,AUC(0-t),[5]; [11],11.9 µM·h
same,half-life,[5]; [11],82 h
same,concentration at 168 h,[5]; [11],30 nM
same,Tmax,"[5]; po, 10 mg, single oral dose 10 mg, suspension, n=6, read-out: Tmax (median [min, max])",2 h
same,AUC(0-inf),[5]; [12],52 µM·h
same,half-life,[5]; [12],77.7 h
same,Cmax,[5]; [12],790 nM
same,AUC(0-inf),[5]; [13],175 µM·h
same,AUC(0-t),[5]; [13],139 µM·h
same,half-life,[5]; [13],75.9 h
same,concentration at 168 h,[5]; [13],300 nM
same,Cmax,[5]; [13],2580 nM
same,AUC(0-inf),[5]; [14],374 µM·h
same,half-life,[5]; [14],83.5 h
same,concentration at 168 h,[5]; [14],680 nM
same,Cmax,[5]; [14],5400 nM
same,Tmax,"[5]; po, 200 mg, single oral dose 200 mg, suspension, n=6, read-out: Tmax (median [min, max])",2.02 h
same,AUC(0-inf),[5]; [15],770 µM·h
same,AUC(0-t),[5]; [15],619 µM·h
same,half-life,[5]; [15],69.1 h
same,Tmax,"[5]; po, 400 mg, single oral dose 400 mg, suspension, n=6, read-out: Tmax (median [min, max])",4 h
same,AUC(0-inf),[5]; [16],710 µM·h
same,AUC(0-t),[5]; [16],606 µM·h
same,half-life,[5]; [16],58.3 h
same,concentration at 168 h,[5]; [16],1280 nM
same,Cmax,[5]; [16],9090 nM
same,Tmax,"[5]; po, 400 mg, single oral dose 400 mg, tablet, n=6, read-out: Tmax (median [min, max])",7 h
same,AUC(0-inf),[5]; [17],1230 µM·h
same,AUC(0-t),[5]; [17],989 µM·h
same,half-life,[5]; [17],70.9 h
same,concentration at 168 h,[5]; [17],2100 nM
same,Cmax,[5]; [17],15400 nM
same,Tmax,"[5]; po, 800 mg, single oral dose 800 mg, tablet, n=6, read-out: Tmax (median [min, max])",4 h
same,AUC(0-inf),[5]; [18],1920 µM·h
same,AUC(0-t),[5]; [18],1570 µM·h
same,half-life,[5]; [18],68.7 h
same,concentration at 168 h,[5]; [18],3590 nM
same,Cmax,[5]; [18],23600 nM
same,Tmax,"[5]; po, 1200 mg, single oral dose 1,200 mg, tablet, n=6, read-out: Tmax (median [min, max])",5 h
same,induction of CYP3A4 expression in vitro,CYP3A4,demonstrated the potential to induce expression of CYP3A4
same,IC50,HIV-1,0.148 µg/mL
same,PK target concentration for C168hr (6 × IC50),HIV-1,300 nM
same,dose proportionality of pharmacokinetics,"[6]; 2 to 1,200 mg",increased dose proportionally; also recorded: approximately dose proportional
same,"Estimate of slope, C168hr as a function of dose","[6]; single oral doses of 2 to 1,200 mg, ln-ln linear mixed-effect model",0.9932
